# Laboratory results as given in patent publication US11360077B2, “Death receptors as markers for rhTRAIL-sensitivity” (Cleveland State University, priority 2017, dated 2022).
# Residues, ends and D or L forms follow the SMILES beside them. *: point of attachment. Cbz = O=C(OCc1ccccc1)*; CH2F = FC*
# Experiments:
# Assay type in all cases: cell-based, human
# [1] = tested on: FLIP; test: Total FLIP protein (western blot)
# Method: Western Blot Analysis. Total cell lysates were prepared using RIPA lysis buffer (Sigma) containing 150 mM sodium chloride, 1.0% Triton X-100, 0.5% sodium deoxycholate, 0.1% sodium dodecyl sulfate (SDS) and 50 mM Tris, pH 8.0 plus a 1× cocktail of protease inhibitors (Protease Inhibitor Cocktail Set I, Calbiochem). Cells were lysed for 30 minutes at 4° C. followed by centrifugation for 10 minutes at 10,000 rpm at 4° C. Protein concentrations were determined using BCA protein assay (Pierce). A 35 μg protein aliquot was mixed with 4× Laemmli's SDS sample buffer (0.02% Bromophenol Blue (BPB), 8% Beta-mercaptoethanol (BME), 8% SDS, 40% glycerol and 250 mM Tris-HCl, pH 6.8). Cell lysates were heated for five minutes at 100° C., resolved by 12% SDS-polyacrylamide gel electrophoresis (SDS-PAGE) and transferred to polyvinylidene fluoride (PVDF) membrane. The membrane was blocked with 5% non-fat milk or 5% BSA for ≥1 hour and incubated with primary antibodies for PARP and caspase 8 (Cell Signaling). After incubation, the membrane was incubated with secondary anti-rabbit or mouse horseradish peroxidase (HRP)-conjugated antibodies (Biorad). Proteins were visualized through development by enhanced chemiluminescence (ECL 2 Western Blotting Substrate, Pierce) and exposure on X-ray film. The blots were reprobed for β-actin to confirm equal protein loading.
# (§1) Western Blot Analysis. Total cell lysates were analyzed for levels of PARP, caspase 8, caspase 3, Bid, caspase 9, caspase 6, caspase 7, FLIP, DR4 and DR5 and the cytosolic cellular fraction was analyzed for cytochrome C (Cell Signaling) using previously described western blotting techniques.
# [2] = tested on: rhTRAIL-resistant malignant melanomas; test: Western blot of co-treatment with general caspase inhibitor Z-VAD-FMK; conditions: Z-VAD-FMK added to rhTRAIL plus quercetin
# Method: (§2) Western Blot Analysis. Total cell lysates were prepared using RIPA lysis buffer (Sigma) containing 150 mM sodium chloride, 1.0% Triton X-100, 0.5% sodium deoxycholate, 0.1% sodium dodecyl sulfate (SDS) and 50 mM Tris, pH 8.0 plus a 1× cocktail of protease inhibitors (Protease Inhibitor Cocktail Set I, Calbiochem). Cells were lysed for 30 minutes at 4° C. followed by centrifugation for 10 minutes at 10,000 rpm at 4° C. Protein concentrations were determined using BCA protein assay (Pierce). A 35 μg protein aliquot was mixed with 4× Laemmli's SDS sample buffer (0.02% Bromophenol Blue (BPB), 8% Beta-mercaptoethanol (BME), 8% SDS, 40% glycerol and 250 mM Tris-HCl, pH 6.8). Cell lysates were heated for five minutes at 100° C., resolved by 12% SDS-polyacrylamide gel electrophoresis (SDS-PAGE) and transferred to polyvinylidene fluoride (PVDF) membrane. […]
# as §1
# Post treatment cells were collected and analyzed for induction of apoptosis through Annexin-V and PI staining and western blotting probing for key proteins in the apoptotic pathways (FIG. 4). […]
# [3] = tested on: DR5; test: Death receptor membrane expression (anti-DR5-PE staining, FACS)
# Method: (§3) Death Receptor Membrane Expression. Untreated and rhTRAIL-treated cells were collected with enzyme-free phosphate-buffered saline (PBS)-based cell dissociation buffer (Gibco Life Technologies) and stained with mouse anti-human DR4 or DR5 conjugated to phycoerythrin (PE) (eBioscience). Briefly, 0.25×10^6 cells were incubated in 100 μl of staining buffer (2% FBS and 0.02% sodium azide in PBS) and 5 μl anti-DR4 or anti-DR5 for one hour on ice in the dark. As a negative control to account for non-specific antibody binding, all four melanoma lines were stained with mouse IgG1κ, the same antibody isotype as DR4 and DR5, under the same conditions. After incubation, cells were washed twice with staining buffer and resuspended in 500 μl of staining buffer and analyzed on BD FACS Canto II using Diva software (BD Bioscience, San Jose, Calif.). Death Receptor Membrane Expression. The cell surface expression of DR4 and DR5 were determined according to previously described methods. For the permeabilization experiments, after the first antibody incubation cells were fixed in 4% paraformaldehyde for 10 minutes at room temperature and permeabilized with 0.1% saponin for 5 minutes at room temperature. Cells were then incubated with anti-IgG1κ, DR4 or DR5 for 30 minutes in the saponin buffer and analyzed by FACS. To calculate the cytoplasmic DR expression, […].
# [4] = tested on: DR4; test: Cytoplasmic DR4 expression (permeabilization, FACS)
# Method: Death Receptor Membrane Expression. The cell surface expression of DR4 and DR5 were determined according to previously described methods. For the permeabilization experiments, after the first antibody incubation cells were fixed in 4% paraformaldehyde for 10 minutes at room temperature and permeabilized with 0.1% saponin for 5 minutes at room temperature. Cells were then incubated with anti-IgG1κ, DR4 or DR5 for 30 minutes in the saponin buffer and analyzed by FACS. To calculate the cytoplasmic DR expression, […].
# [5] = tested on: DR5; test: DR5 mRNA (reverse transcription-PCR)
# Method: (§4) Reverse Transcription-PCR. Total RNA was extracted using TRIzol reagent (Ambion) and treated with DNase according to manufacturer's protocol (Invitrogen Deoxyribonuclease I, Amplification Grade). RT-PCR was performed following the manufacturer's protocol (Invitrogen SuperScript III One-Step RT-PCR System with Platinum® Taq DNA Polymerase). Human DR5 mRNA was amplified using the forward primer 5′-[…]-3′ and the reverse primer 5′-[…]-3′. For DR4, forward primer 5′-GAGCAACGCAGACTCGCT-3′ and the reverse primer 5′-TCACTCCAAGGACACGGC-3′ were used. For FLIP, forward primer 5′-[…]-3′ and the reverse primer 5′-[…]-3′ were used. For β-actin, the forward primer 5′-[…]-3′ and the reverse primer 5′-[…]-3′ were used. cDNA synthesis was performed at 60° C. for 30 minutes using the Applied Biosystems GeneAmp PCR System 9700. The PCR cycling conditions (30 cycles) were as follows: denature for 2 minutes at 94° C., anneal for 30 seconds at 55° C. for FLIP and DR4 and 65° C. for DR5 and β-actin, extend for 1 minute and 30 seconds at 68° C., and execute a final extension for 10 minutes at 68° C. Reaction products were analyzed on 1.2% agarose gels. The bands were visualized by ethidium bromide and an UV.
# [6] = tested on: WM164; test: Western blot of apoptotic cascade (PARP, caspases, Bid, cytochrome c); conditions: WM164, quercetin alone at 25 and 50 μM
# Method: as §2, with “6.8).” for “6.8). Cell lysates were heated for five minutes at 100° C., resolved by 12% SDS-polyacrylamide gel electrophoresis (SDS-PAGE) and transferred to polyvinylidene fluoride (PVDF) membrane.”
# (§5) Melanoma rhTRAIL-Sensitivity: To test rhTRAIL-sensitivity, malignant melanoma lines were treated with and without 100 ng/ml of rhTRAIL for 72 hours. […] Post-treatment cells were analyzed for induction of apoptosis through FITC-Annexin-V and PI staining followed by FACS analysis (FIGS. 2A & 2B).
# (§6) Western Blot Analysis. Total cell lysates were analyzed for levels of PARP, caspase 8, caspase 3, Bid, caspase 9, caspase 6, caspase 7, FLIP, DR4 and DR5 and the cytosolic cellular fraction was analyzed for cytochrome C (Cell Signaling) using previously described western blotting techniques. […]
# [7] = tested on: MeWo; test: as above; conditions: quercetin alone at 25 and 50 μM
# Method: as §2, with “6.8).” for “6.8). Cell lysates were heated for five minutes at 100° C., resolved by 12% SDS-polyacrylamide gel electrophoresis (SDS-PAGE) and transferred to polyvinylidene fluoride (PVDF) membrane.”
# as §5, §6
# [8] = tested on: DR4; test: DR4 mRNA (reverse transcription-PCR)
# Method: as §4
# [9] = tested on: DR4; test: Total DR4 protein (western blot)
# Method: as §2, with “membrane. The membrane was blocked with 5% non-fat milk or 5% BSA for ≥1 hour and incubated with primary antibodies for PARP and caspase 8 (Cell Signaling).” for “membrane.”
# as §1
# [10] = tested on: DR4; test: Death receptor membrane expression (anti-DR4-PE staining, FACS)
# Method: as §3
# [11] = tested on: FLIP; test: FLIP mRNA (reverse transcription-PCR)
# Method: as §4
# [12] = tested on: WM164; test: Apoptosis assay (FITC-Annexin-V and PI staining, FACS)
# Method: (§7) Cell Culture. Cells were incubated in a 90% humidified atmosphere with 5% CO2 at 37° C. Human adult primary epidermal melanocytes (ATCC PCS-200-013) were maintained in Dermal Cell Basal Medium supplemented with an Adult Melanocyte Growth kit (ATCC PCS-200-042) and 1% Antibiotic/Antimycotic Solution. The malignant melanoma cell lines, A375 (ATCC CRL-1619), WM9 and WM164 were maintained in DMEM and MeWo (ATCC HTB-65) was maintained in RPMI, both supplemented with 10% Fetal Bovine Serum (FBS) and 1% Antibiotic/Antimycotic Solution. WM9 and WM164 were a kind gift from Dr. Daniel J. Lindner from the Cleveland Clinic Foundation, Cleveland, Ohio Malignant melanoma lines are derived from patient tumors. A375 was derived from an epithelial skin biopsy. MeWo, WM9 and WM164 are metastatic malignant melanomas isolated from the lymph nodes.
# (§8) Apoptosis Assay. Cells were trypsinized, harvested, washed twice with cold PBS and resuspended in 100 μl of Annexin-V binding buffer at a concentration of 1×10^3 cells/μl. According to manufacturer's protocol, cells were incubated with 5 μl of FITC-Annexin-V and propidium iodide (PI) for 15 minutes at room temperature in the dark (FITC-Annexin-V Kit Apoptosis Detection Kit I, BD Pharminogen). Stained cells were analyzed on BD FACS Canto II using Diva software. Single color controls (Annexin-V or PI only) were used to set up compensation and quadrants for FACS.
# (§9) Melanoma rhTRAIL-Sensitivity: To test rhTRAIL-sensitivity, malignant melanoma lines were treated with and without 100 ng/ml of rhTRAIL for 72 hours. Prior to treatment, control experiments were done to determine the optimal conditions for rhTRAIL-treatment (data not shown). The treatment of 100 ng/ml for 72 hours was selected to best distinguish between rhTRAIL-sensitive and rhTRAIL-resistant melanomas. Post-treatment cells were analyzed for induction of apoptosis through FITC-Annexin-V and PI staining followed by FACS analysis (FIGS. 2A & 2B). […]
# [13] = tested on: MeWo; test: as above; conditions: quercetin alone at 25 and 50 μM
# Method: as §7, §8, §9
# [14] = tested on: DR5; test: Total DR5 protein (western blot)
# Method: as §2, with “membrane. The membrane was blocked with 5% non-fat milk or 5% BSA for ≥1 hour and incubated with primary antibodies for PARP and caspase 8 (Cell Signaling).” for “membrane.”
# as §1
# [15] = MeWo, post-treatment with quercetin
# [16] = WM164, post-treatment with quercetin
smiles,measurement,setting,value
"CC(C)C[C@@H](C=O)NC(=O)[C@H](CC(C)C)NC(=O)[C@H](CC(C)C)NC(=O)OCc1ccccc1 [MG132, reference compound] (Cbz-Leu-Leu-Leu-aldehyde)",effect of proteasome inhibitor on quercetin-mediated FLIP downregulation (total FLIP protein),[1]; co-treatment with quercetin,the downregulation of FLIP was prevented
COC(=O)C[C@H](NC(=O)[C@H](C)NC(=O)[C@@H](NC(=O)OCc1ccccc1)C(C)C)C(=O)CF [Z-VAD-FMK] (Cbz-Val-Ala-Asp(OMe)-CH2F),"effect on induction of apoptosis (PARP cleavage, caspase 3 activation) in the co-treatment group",[2],blocked the induction of apoptosis
O=c1c(O)c(-c2ccc(O)c(O)c2)oc2cc(O)cc(O)c12 [quercetin],DR5 membrane expression upregulation,"[3]; MeWo, quercetin 25 and 50 μM",this did not occur
same,"DR5 membrane expression, fold increase relative to control","[3]; WM164, quercetin 25 μM",quarter-fold increase
same,"DR5 membrane expression, fold increase relative to control","[3]; WM164, quercetin 50 μM",half-fold increase
same,cytoplasmic levels of DR4,"[4]; MeWo, application of quercetin",decreased
same,cytoplasmic levels of DR4,"[4]; WM164, application of quercetin",decreased
same,DR5 mRNA,[5]; [15],no change
same,DR5 mRNA,[5]; [16],dose-dependent upregulation
same,PARP cleavage or protein activation,[6],did not reveal any PARP cleavage or protein activation
same,PARP cleavage or activation of pro-apoptotic proteins,[7],no PARP cleavage or activation of any pro-apoptotic proteins
same,DR4 mRNA message,[8]; [15],no change
same,DR4 mRNA message,[8]; [16],no change
same,total DR4 protein expression,[9]; [15],no change
same,total DR4 protein expression,[9]; [16],no change
same,"DR4 membrane expression, fold increase relative to control","[10]; MeWo, quercetin 25 μM",over four-fold
same,"DR4 membrane expression, fold increase relative to control","[10]; MeWo, quercetin 50 μM",over 11 fold
same,"DR4 membrane expression, fold increase relative to control","[10]; WM164, quercetin 25 μM",nearly five-fold
same,"DR4 membrane expression, fold increase relative to control","[10]; WM164, quercetin 50 μM",seven-fold
same,protein expression of FLIP,"[1]; MeWo, quercetin",dose-dependently downregulate
same,protein expression of FLIP,"[1]; WM164, quercetin",dose-dependently downregulate
same,FLIP mRNA transcript signal,"[11]; MeWo, quercetin",no change
same,FLIP mRNA transcript signal,"[11]; WM164, quercetin",no change
same,apoptotic cells,"[12]; WM164, quercetin alone at 25 μM",10.5±0.7%
same,apoptotic cells,"[12]; WM164, quercetin alone at 50 μM",19.1±1.6%
same,induction of apoptosis compared to control,[13],no significant induction of apoptosis
same,total DR5 protein expression,[14]; [15],no change
same,total DR5 protein,[14]; [16],dose-dependent upregulation
